For 64 compounds, melting point results are on record in a melting point compilation (Tetko et al.; mined from patent text by program, amines drawn as free bases though some values may be those of a salt).

What is called melting point is the temperature, or range, at which the solid turns liquid. In the case of `NS(=O)(=O)c1cccc(NC(=O)c2cnn3c(C(F)(F)F)cc(-c4ccc(OC(F)(F)F)cc4)nc23)c1`, the melting point was determined as 257 °C.

`COc1ccc2cc(CCC(C)O)cc(F)c2c1` (centres undefined) displayed a melting point of 58 to 60 °C. Then `O=C(c1cc2cc(OCCNC[C@H](O)COc3ccccc3)ccc2o1)N1CCCC1`, with 117 to 118 °C. As to `O=C(O)Cc1ccc2c(c1)-c1ccccc1C2`, the melting point lay within 166 to 168 °C. For `CC(C)(C)OC(=O)N1CCC(COc2ccc(N)cc2)CC1`, the melting point was in the range of 100 to 101 °C.

In turn, `COc1ccc(C2=C(c3ccc(S(C)(=O)=O)cc3)CCC2)cc1Cl` showed a melting point of 118 to 120 °C. Compound `COc1cc(-n2nc(C(F)(F)F)cc2-c2ccc(-c3ccco3)cc2)ccc1S(C)(=O)=O` displayed a melting point of 139 °C. Regarding `CCCCCCCNC(=O)Nc1ccccc1C(=O)NC1CCN(C(c2ccccc2)c2ccccc2)CC1`, the melting point amounted to 182 °C. `CS(=O)(=O)c1ccc(-c2cnn(-c3cccc(Cl)c3)c(=O)c2Sc2ccccn2)cc1` had a melting point of 110 to 114 °C. The compound `Cc1c2c(c(Cc3ccc(C(C)C)cc3)c(C)c1NC(=O)CC(C)(C)C)OCC2` returned a melting point of 201 to 202 °C. `CC(C)(C)OC(=O)NCC(=O)c1cccnc1` came in with a melting point of 98 to 99 °C. Consider `CCCCCCC(C)(C)c1cc(OCc2ccccc2)c(C2=C(CC#N)CCC(C)C2)c(OCc2ccccc2)c1` (centres undefined), for which the melting point lay within 85 to 86 °C. `COc1cc(C2=C(C(C)(C)C)C(C)(C)CO2)cc(OC)c1Br` registered a melting point of 139 to 140 °C. For the compound `CC(=O)Oc1ccc(Cn2ncc(-c3ccc(S(C)(=O)=O)cc3)c(-c3ccc(F)cc3)c2=O)cc1`, the melting point fell in the range of 172 to 174 °C. For `Nc1nccc2occc12`, the melting point was 122 to 124 °C. As for `COc1ccc2c(c1)C(=NO)C(=O)N2c1ccc(F)cc1`, the melting point is 217 to 219 °C. On to `CN1c2c(Cl)cc(CC(=O)O)cc2CCC1c1ccccc1` (centres undefined), for which the melting point is 111 to 112 °C.

`Cc1cccc(COc2cccc(OCc3ccc4cc(F)ccc4n3)c2)c1OCC(=O)O`: the melting point fell in the range of 160 to 161 °C. The compound `Clc1ccc2c(c1)N=C(c1ccncc1)c1ccccc1O2` came in with a melting point of 122 °C. As to `Oc1cc(Br)cnc1F`, the melting point amounted to 146 °C. The compound `C=CCSC(=S)N1Cc2[nH]c3ccccc3c2CC1C(=O)O` (centres undefined) yielded a melting point of 161 to 162 °C.

The compound `COc1cc(C2C3=C(COC3=O)Nc3ccc4cc[nH]c4c32)ccc1F` (centres undefined) had a melting point of 170 to 172 °C. For `COC(=O)c1cc2ccc(Sc3ccc(C)cc3)nc2s1`, the melting point is 127 to 130 °C. The compound `CCCCn1c(=O)n(C)c(=O)c2[nH]ncc21` had a melting point of 160 to 162 °C.

Turning to `CC(=O)c1cc(C(C)=O)c(OCCCCC#N)cc1O`, the melting point was 105 to 106 °C. Compound `CC(=O)OCC(=O)C1(OC(C)=O)C(C)CC2C3CC(C)C4=CC(=O)CCC4(C)C3(F)C(O)CC21C` (centres undefined) registered a melting point of 194 to 195 °C.

With `Cc1cc(O)nc2c1CCCC2`, the melting point was in the range of 250 to 252 °C. As for `COc1ccc(-n2nc(CO)cc2-c2ccc(C)cc2)cc1`, the melting point is 100 to 102 °C.

In the case of `CNC(=O)c1ccccc1C(=O)NCSc1ccncc1`, the melting point is 118 to 121 °C. The result for `Cc1cn(-c2ccc([N+](=O)[O-])c(C)c2)c(C)n1` reads 136 to 138 °C; that for `COc1ccccc1C(=O)NS(=O)(=O)c1ccc(NC(=O)C2CCCC2)cc1`, 202 to 206 °C. Turning to `COC(=O)c1ccc(C(=O)NCCCCNC(=O)c2ccc(C(=O)OC)cc2)cc1`, the melting point lay within 260 to 261 °C. `CON(C)C(=O)Nc1ccc(OCCc2ccc(C(C)C)cc2)cc1` returned a melting point of 81 to 82 °C.

Turning to `CC1(C)N=C(NC(=O)c2ccco2)N=C(NC(=O)c2ccco2)N1OCc1cccc2ccccc12`, the melting point is 173 to 177 °C. Turning to `CC(C)(C)c1nc2cc(N3CCOCC3)c([N+](=O)[O-])cc2s1`, the melting point is 119 to 121 °C. In turn, `CSC(=N)Nc1ccc(Cl)c(Cl)c1` yielded a melting point of 166 °C.

The compound `COc1ccc2c(c1)c(N1CCN(C#N)CC1)nn2S(=O)(=O)c1ccccc1` came in with a melting point of 171 to 173 °C. Compound `O=C(NC1CCC(CCN2CCN(c3nccc4c3OCC4)CC2)CC1)c1ccc(N2CCS(=O)(=O)CC2)cc1` (centres undefined) came in with a melting point of 260 °C.

The compound `OC(CCC1CCNCC1)c1cc(-c2ccccc2)nc2ccccc12` (centres undefined) came in with a melting point of 162 °C. In the case of `Cc1sc(C2=NOC(c3cc(Cl)cc(Cl)c3)(C(F)(F)F)C2)cc1Br` (centres undefined), the melting point was 110 to 112 °C. For `COC(=O)C1Cc2c(nc(C)n2-c2ccc(N(C)C)c(C)c2)CN1C(=O)C(c1ccccc1)c1ccccc1` (centres undefined), the melting point amounted to 165 °C. In turn, `COc1cc(C(=O)O)ccc1Cc1csc2ccc(NC(=O)OC3CCCC3)cc12` showed a melting point of 259 to 261 °C.

On to `CN(C)C=Nc1c(Cl)cc(N=Cc2cc(Cl)cc(Cl)c2)cc1Cl`, for which the melting point was 194 to 195 °C. Compound `CCOP(=O)(/C=C/c1cn(-c2ccccc2)nc1NC)OCC` yielded a melting point of 132 to 133 °C.

The compound `CCc1nnc(C=Cc2ncc([N+](=O)[O-])n2C)s1` showed a melting point of 165 °C.

For the compound `COc1nc(C)n2nc(S(=O)(=O)Nc3c(Cl)cccc3Cl)nc2c1Cl`, the melting point lay in the range of 255 to 256 °C. As for `CC1=C(c2ccc(Cl)cc2)n2ncc(C#N)c2N(C(=O)CCl)C1`, the melting point was 138 to 140 °C. As to `CC(=O)Nc1ccc(OCCCO[N+](=O)[O-])cc1`, the melting point is 89 to 92 °C. The result for `CC(=O)OCCn1c([N+](=O)[O-])cnc1C=O` reads 203 to 205 °C; that for `COc1ccc(S(=O)(=O)N2CCc3cccc(-c4ccccc4)c32)cc1`, 166 to 168 °C; that for `CC(=O)Nc1cnc(-c2cc(Cl)ccc2Cl)c(N)n1`, 152 to 154 °C. The compound `CC1SC(c2cccnc2)N(C)C1=O` (centres undefined) yielded a melting point of 66.5 to 68.5 °C.

Take `CCOC(=O)C(C#N)CCCCCCc1ccc(Cl)cc1` (centres undefined): the melting point was 121 to 122 °C. As to `CC(Cc1c[nH]c2ccccc12)(NS(=O)(=O)CC12CCC(CC1=O)C2(C)C)C(=O)NC(CO)Cc1ccccc1` (centres undefined), the melting point is 81 to 85 °C.

On to `O=C(O)Cc1ccc2c(c1)CCc1cccnc1O2`, for which the melting point lay within 203 to 204 °C. Regarding `Cn1ncc2c1-c1c(Cc3ccccc3)sc(C(=O)O)c1CC2`, the melting point was over 300 °C. As for `NC(=O)n1cc(-c2ccc(Oc3ccc(N)cc3)cc2)cn1`, the melting point fell in the range of 158 to 160 °C. The result for `Cc1sc(Nc2cccc(C#N)n2)nc1-c1cn[nH]c1` reads 331 °C; that for `CCc1ccc(Nc2nc3cc(NC(=O)c4cc([N+](=O)[O-])ccc4Cl)ccc3o2)cc1`, over 250 °C.

`Cc1cc(-c2cccc(N)n2)c(C)cc1OCCN1CCN(CCc2ccccc2)CC1`: the melting point is over 220 °C. `O=C(COc1cc(C(=O)O)c(O)c2ccccc12)c1ccccc1` yielded a melting point of 120 to 121 °C.

For the compound `COc1cc2c(cc1OC)C(c1ccccc1)=NC(c1cccnc1)C2` (centres undefined), the melting point lay within 180 to 182 °C. On to `Cc1cc(O)n2nc(CC(=O)O)nc2n1`, for which the melting point fell in the range of 266 to 270 °C.

For `COc1cc2c(cc1/C=C/CCO)oc1cc(-c3ccccc3Cl)c3c(c12)C(=O)NC3=O`, the melting point lay in the range of 247 to 250 °C.
